Measurements published in US6294542A, “Pyrimidinone compounds, pharmaceutical compositions containing the compounds and the process for preparing the same” (Boryung Pharmaceutical Co. Ltd., priority 1998, dated 2001).

Columns and labels:
[1] = test system: Angiotensin II-induced pressor response; assay: In vivo Angiotensin II antagonism in conscious normotensive rats; settings: Rattus norvegicus, po; P.O.; conscious normotensive male SD rats; Angiotensin II 0.1 μg/kg; read-out: ID50 (dose of test compound necessary to produce 50% inhibition of Angiotensin II-induced pressor response)
Method: The antagonistic activity of the compound (I) against the angiotensin II, which is prepared by the process according to a preferred embodiment of the invention, was evaluated with relation to rats.
In vivo Angiotensin II antagonism in conscious normotensive rats.
Male SD rats (Charles River Japan, 9 weeks, 300-350 g) were anesthetized with pentobarbital at 50 mg/kg i.p. Both the left femoral artery and the right femoral vein were cannulated. A heparin-filled catheter (50U/ml) was tunneled subcutaneously (s.c.) to the dorsal side of the neck and exteriorized.
Rats were permitted to recover overnight from anesthesia and allowed free access to water, but food was withheld.
The next day, the femoral artery catheter was connected to a pressure transducer (COBE 041-500-508, USA) coupled to a polygraph (GRASS Model 7, USA) to monitor arterial blood pressure. After an appropriate equilibration period, Angiotensin II (0.1 μg/kg) was injected in the femoral vein three times during the control period.
Test compounds were then administered orally (p.o.) at a constant volume of 2 ml/kg.
Angiotensin II challenges were repeated at set times thereafter.
ID50 values, the dose of test compound necessary to produce 50% inhibition of Angiotensin II-induced pressor response, were calculated from peak inhibition percentage with several doses of test compound.

[2] = Acute Toxicity Test (oral, mice); format: in vivo; settings: for LD50: mouse, in vivo, po
Method: Respective 5 mice of ICR system, which was distributed from Korean Laboratory Animal Center, were bred in a polycarbonate breeding box at a breeding environment of 23±1° C. of temperature, 55±5% of humidity, 10-15 times/hr of evacuation, 12 hr cycle of fluorescent light luminance, and 150-300 Lux of illumination.
After observing the mice for one week of acclimation breeding period, only normal mice were selected for laboratory work. The mice were fed with sterilized feed for laboratory animals, which was made by Cheil Jedang Co.,Ltd, and supplied with purified water to drink.
During the acclimation period, mice, who were evaluated to be healthy, were weighed and divided into groups randomly. Individual identification of laboratory animals was performed by indumentum pigment display and tag display per breeding box.
Establishment of dose was carried out according to a result of preliminary test in such a manner that a maximum dose group for both male and female was set to 5000 mg/kg and azeotropy was set to 1.71. Medium-high, medium and medium-low dose groups were respectively set as follows and a control group was administrated with physiological saline for injection.
Before administration of testing substances, body weight of the laboratory animals was in the range of 24-28 g in case of male and in the range of 19-28 g in case of female, respectively. The laboratory animals were aged 6 weeks.
Preparation of the testing substances was dissolved in physiological saline before administration. Dose was calculated according to the body weight which was measured before administration and dispensed by oral administration to a mouse who was in abrosia for 18 hours before testing.
Observation of clinical symptom such as general change, toxic symptom and mortality was performed for all laboratory animals once an hour during 6 hours after administration on the very administration day, and once a day from the next day to 14th day of administration.
Administration group, who was administered with testing substances, and the control group were weighed on the administration day, first, third, seventh, tenth and fourteenth days from the administration at a predetermined time for all animals who were alive.
After finish of the test, all animals were slightly anesthetized with ether and bleeding-killed. Appearance and internal organs of the animals were examined with naked eye carefully. Animals, who died during the text, were examined in the same manner.

CCCCc1nc(C)c(CC(=S)N2CCCC2)c(=O)n1Cc1ccc(-c2ccccc2-c2nnn[nH]2)cc1 [Compound 8, 2-n-butyl-5-pyrrolidinothiocarbonylmethyl-6-methyl-3-[[2'-(1H-tetrazol-5-yl)-biphenyl-4-yl]methyl]-pyrimidine-4(3H)-one]
ED50 [1]: 0.93 mg/kg | Final mortality (death number/total number) ([2]; female, 1000 mg/kg oral): 0/5 | Mortality (death number/survival number) ([2]; female, 1000 mg/kg oral, day 0): 0/5 | Mortality (death number/survival number) ([2]; female, 1000 mg/kg oral, day 1): 0/5 | Mortality (death number/survival number) ([2]; female, 1000 mg/kg oral, day 2): 0/5 | Mortality (death number/survival number) ([2]; female, 1000 mg/kg oral, day 3): 0/5 | Mortality (death number/survival number) ([2]; female, 1000 mg/kg oral, day 7): 0/5 | Mortality (death number/survival number) ([2]; female, 1000 mg/kg oral, day 14): 0/5 | Final mortality (death number/total number) ([2]; female, 1710 mg/kg oral): 0/5 | Mortality (death number/survival number) ([2]; female, 1710 mg/kg oral, day 0): 0/5 | Mortality (death number/survival number) ([2]; female, 1710 mg/kg oral, day 1): 0/5 | Mortality (death number/survival number) ([2]; female, 1710 mg/kg oral, day 2): 0/5 | Mortality (death number/survival number) ([2]; female, 1710 mg/kg oral, day 3): 0/5 | Mortality (death number/survival number) ([2]; female, 1710 mg/kg oral, day 7): 0/5 | Mortality (death number/survival number) ([2]; female, 1710 mg/kg oral, day 14): 0/5 | Final mortality (death number/total number) ([2]; female, 2924 mg/kg oral): 2/5 | Mortality (death number/survival number) ([2]; female, 2924 mg/kg oral, day 0): 2/5 | Mortality (death number/survival number) ([2]; female, 2924 mg/kg oral, day 1): 0/3 | Mortality (death number/survival number) ([2]; female, 2924 mg/kg oral, day 2): 0/3 | Mortality (death number/survival number) ([2]; female, 2924 mg/kg oral, day 3): 0/3 | Mortality (death number/survival number) ([2]; female, 2924 mg/kg oral, day 7): 0/3 | Mortality (death number/survival number) ([2]; female, 2924 mg/kg oral, day 14): 0/3 | Final mortality (death number/total number) ([2]; female, 5000 mg/kg oral): 4/5 | Mortality (death number/survival number) ([2]; female, 5000 mg/kg oral, day 0): 4/5 | Mortality (death number/survival number) ([2]; female, 5000 mg/kg oral, day 1): 0/1 | Mortality (death number/survival number) ([2]; female, 5000 mg/kg oral, day 2): 0/1 | Mortality (death number/survival number) ([2]; female, 5000 mg/kg oral, day 3): 0/1 | Mortality (death number/survival number) ([2]; female, 5000 mg/kg oral, day 7): 0/1 | Mortality (death number/survival number) ([2]; female, 5000 mg/kg oral, day 14): 0/1 | Final mortality (death number/total number) ([2]; male, 1000 mg/kg oral): 0/5 | Mortality (death number/survival number) ([2]; male, 1000 mg/kg oral, day 0): 0/5 | Mortality (death number/survival number) ([2]; male, 1000 mg/kg oral, day 1): 0/5 | Mortality (death number/survival number) ([2]; male, 1000 mg/kg oral, day 2): 0/5 | Mortality (death number/survival number) ([2]; male, 1000 mg/kg oral, day 3): 0/5 | Mortality (death number/survival number) ([2]; male, 1000 mg/kg oral, day 7): 0/5 | Mortality (death number/survival number) ([2]; male, 1000 mg/kg oral, day 14): 0/5 | Final mortality (death number/total number) ([2]; male, 1710 mg/kg oral): 2/5 | Mortality (death number/survival number) ([2]; male, 1710 mg/kg oral, day 0): 2/5 | Mortality (death number/survival number) ([2]; male, 1710 mg/kg oral, day 1): 0/3 | Mortality (death number/survival number) ([2]; male, 1710 mg/kg oral, day 2): 0/3 | Mortality (death number/survival number) ([2]; male, 1710 mg/kg oral, day 3): 0/3 | Mortality (death number/survival number) ([2]; male, 1710 mg/kg oral, day 7): 0/3 | Mortality (death number/survival number) ([2]; male, 1710 mg/kg oral, day 14): 0/3 | Final mortality (death number/total number) ([2]; male, 2924 mg/kg oral): 3/5 | Mortality (death number/survival number) ([2]; male, 2924 mg/kg oral, day 0): 3/5 | Mortality (death number/survival number) ([2]; male, 2924 mg/kg oral, day 1): 0/2 | Mortality (death number/survival number) ([2]; male, 2924 mg/kg oral, day 2): 0/2 | Mortality (death number/survival number) ([2]; male, 2924 mg/kg oral, day 3): 0/2 | Mortality (death number/survival number) ([2]; male, 2924 mg/kg oral, day 7): 0/2 | Mortality (death number/survival number) ([2]; male, 2924 mg/kg oral, day 14): 0/2 | Final mortality (death number/total number) ([2]; male, 5000 mg/kg oral): 4/5 | Mortality (death number/survival number) ([2]; male, 5000 mg/kg oral, day 0): 2/5 | Mortality (death number/survival number) ([2]; male, 5000 mg/kg oral, day 1): 1/3 | Mortality (death number/survival number) ([2]; male, 5000 mg/kg oral, day 2): 0/2 | Mortality (death number/survival number) ([2]; male, 5000 mg/kg oral, day 3): 0/2 | Mortality (death number/survival number) ([2]; male, 5000 mg/kg oral, day 7): 1/2 | Mortality (death number/survival number) ([2]; male, 5000 mg/kg oral, day 14): 0/1 | LD50 ([2]; female mice): 4060 mg/kg | LD50 ([2]; male mice): 3170 mg/kg
